According to US12599649B2, “Bioactive polypeptides for improvements in plant protection, growth and productivity” (priority 2017, dated 2026):
Where “and” joins values, the source holds several entries; their conditions need not be identical. Equal values may be shown once. No end group written: not given here. *: point of attachment. sulfo = O=S(=O)(O)*

Assays:
corn [1] = test: Foliar At.PSKα on corn, field yield (Example 20); type: in vivo
Description: (§1) The effect of Phytosulfokine alpha (PSKα), a sulfonated bioactive priming polypeptide derived from Arabidopsis thaliana, on corn and soybean yield was tested. Corn and soybeans were cultivated in the field as described in Example 1 and 3. Arabidopsis thaliana PSKα (SEQ ID NO: 598) was applied at a final concentration of 1 μM in foliar spray with a surfactant and provided using a uniform application to the above ground plant parts of corn (hybrid 5140RR) and soybean (hybrid 375 NR). At.PSKα formulations were applied at the V5-V8 stage of development in corn and the V1-V4 stage of development in soybean. Corn and soybean plants treated with At.PSKα were compared to non-treated control plants (water). Treated plants were randomized at one location in four replicate blocks for comparisons to the controls. Yield was reported in Bushels per acre (Bu/Ac).

soybean [2] = test: Foliar At.PSKα on soybean, field yield (Example 20); type: in vivo
Description: as §1

corn [3] = test: Foliar HpaG-like and At.PSKα on corn, plant height in non-stress and stress (Example 27); type: in vivo
soybean [4] = test: Foliar At.PSKα on soybean in non-stress and stress environments (Example 21); type: in vivo; settings: V1-V4 foliar
Description: Soybean plants were grown as described in Example 6. The At.PSKα polypeptide (SEQ ID NO: 598) was applied as a foliar spray to the plants at the V1-V4 stage. Soybean plants treated with foliar applications of At.PSKα and control plants treated with water and surfactant alone were then grown in conditions described in Examples 7-9 that produced a non-stress and stress (heat and water deficit) environments. Table 37 describes the percentage change or increase in height reported for soybean plants treated with At.PSKα as a foliar spray at the V1-V4 growth stage.

[5] = tested on: Candidatus liberibacter asiaticus; settings: in vivo
[6] = tested on: Pseudomonas syringae pv. actinidiae (PSA-V); test: Potted kiwi disease trial, PSA-V leaf spot (Example 54); settings: 6, 16 and 23 DAI
[7] = tested on: reactive oxygen species (ROS) production in Kiwi 'Hayward' leaf petioles; test: ROS assay, kiwi leaf petioles (Example 54); type: cell-based, Actinidiae deliciosa; settings: 100 nM peptide, 40 minutes time course, SEM in the row below
Description: To test the sensitivity of kiwi leaves to 22-amino acid fragments of flagellin, 1 mm slices were cut through Actinidiae deliciosa Kiwi ‘Hayward’ leaf petioles and floated in 150 μL of water in a 96-well plate, with one slice per well. […] In two independent experiments, a total of 6 kiwi leaf petiole samples were treated with each Flg22 polypeptide in Table 94. The average total RLU and standard error of the means (SEM) was calculated for each treatment. A two-tailed T-test was used to determine significance at the 90% confidence level (P<0.1) between treatments. Relative ROS production was determined for each polypeptide in comparison to total RLUs for the 100 nM Bt.4Q7Flg22 control.

corn [8] = test: Foliar Flg22 and retro inverso Flg22 on corn, plant height (Example 7); type: in vivo; settings: 1 μM
Description: Control plants were treated with water alone.

[9] = tested on: reactive oxygen species (ROS) production in corn tissue; test: ROS activity assay, corn tissue (Examples 15-18); type: cell-based
[10] = tested on: reactive oxygen species (ROS) production in soybean leaf tissue; test: ROS activity assay, soybean leaf discs (Examples 15-18); type: cell-based
soybean [11] = test: Soybean seed treatment with Flg22 polypeptides and cellobiose, yield (Example 38); type: in vivo; settings: polypeptide at 1.0 μM (combination 0.33 μM each; cellobiose 1 mM)
Description: Seed treatments were applied to 1 soybean hybrid (variety) planted in 1 locations in the US Midwest (Columbia, MO). […] The application use rates per each seed treatment were held constant at 0.14 Fl. oz/Ac or 4.14 mL/unit. Final concentration of the Flg22 polypeptides in the slurry for were standardized to 1 uM per seed. The same final concentration of cellobiose that was applied in combination treatments with the Flg22 polypeptides was at 1.0 mM per seed. Four replicate plots per each seed treatment were randomized over the location. The average yield in Bu/Ac and the average change in Bu/Ac as compared to the control plants that received only the base seed treatment are reported in Table 58.

corn [12] = test: Corn seed treatment with Bt.4Q7Flg22 and Pa.Flg22, yield (Example 36); type: in vivo; settings: 1 uM in slurry, 3 hybrids, 8 locations
Description: Seed treatment compositions of the Flg22 polypeptides were applied as described in Table 53 as Fl. oz per unit of corn or soy seeds in a total slurry volume containing the base seed treatment Bt.4Q7Flg22 from Bacillus thuringinesis (Composition 10) and Pa. Flg22 from Paenibacillus alvei (Composition 11). Final concentration of polypeptide in the slurry for Compositions 10 and 11 was 1 uM.
The average change in Bu/Ac was as compared to the corn plants grown from seed that received the only the base seed treatment (ST) and is reported in Table 54.

soybean [13] = test: Flg22 and RHPP on R2 soybean, field yield (Examples 3-4); settings: second study, R2 foliar
corn [14] = test: Foliar Flg22 polypeptides on corn, field yield trials (Example 1); type: in vivo; settings: first year field trials, 10 locations, vs non-treated control
Description: Flg22 (SEQ ID NO 526) and Ec.RI Flg22 (SEQ ID 527) bioactive priming polypeptides on corn (BECK'S 5828 YH, 6175YE) yield was determined in 10 separate locations in the US Midwest (FIG. 2 and FIG. 3).
Four-row plots, 17.5 feet (5.3 meters) long were planted at all locations. […] Each hybrid was grown in at least three separate plots (replicates) at each location to account for field variability.
The final concentration in the spray tank was 25 nM after dilution in carrier rate of 10 gallons water/Ac […]. […] Retro-inverso polypeptides were applied during the first year field trials to compare with native Bt.4Q7Flg22. […] Each polypeptide was applied with a non-ionic surfactant at 0.5%. The effect of bioactive priming polypeptides was measured as the absolute changes in yield in bushels per acre (Bu/Ac). Additionally, the win rate was calculated: the percentage of testing locations at which one treatment has a yield advantage over other treatments (in this case, as compared to the non-treated control plants).
Each study was performed at between 10 and 11 sites. The end results of the study at V5-V8 at 0.33 Fl. oz/Ac (24.1 mL/Ha) was 5.75 Bu/Ac or 360.9 kg/Ha advantage, at 4 Fl. oz/Ac a 3.77 bu/Ac or 236.6 kg/Ha advantage, and at 8 Fl. oz/Ac a 5.05 Bu/Ac or 317 kg/Ha.

soybean [15] = test: Soybean seed treatment with Flg22 polypeptides and RHPP, yield (Example 10); type: in vivo; settings: 12 locations
Excerpt: A third study was set up to look at soybean seed treatment benefits of Bt.4Q7 Flg22, RI Bt.4Q7Flg22, Ec.RI Flg22, and RHPP as a seed treatment on soybean.

corn [16] = test: Foliar E. coli flagellin polypeptides on V5-V8 corn, yield (Example 5); type: in vivo; settings: V5-V8, 0.33 Fl. oz/Ac, 12 locations
Description: The effect of flagellin polypeptides derived from Escherichia coli on corn yield was then tested. Corn plants (Beck's 5828 YH) received an initial spray application at the V5-V8 stage of development with formulations containing the Ec.
FIG. 5 depicts yield across these 12 locations, normalized to the non-treated control plants and shown as an increase or a decrease in Bu/Ac compared to the control. […] Therefore, application of foliar sprays containing the Ec.Flg22 (SEQ ID NO: 526) bioactive priming polypeptides provided a beneficial growth response and yield benefit to corn plants when applied at the V5-V8 stage of development.

corn [17] = test: Corn seed treatment with Flg22 polypeptides, yield (Example 10); type: in vivo; settings: second study, 12 locations
Description: The seed applications were provided using a 40 μM polypeptide stock diluted to the appropriate concentration in a slurry containing a fungicide, insecticide, beneficial bacteria, colorant and seed finisher (EverGol Energy (0.031 mg ai/seed), PONCHO/VOTiVO (0.6 mg ai/seed), Peridium 1006 (5 fl oz/cwt or 147.9 mL/cwt) and Pro-Ized Red Colorant (normal) (0.5 fl oz/cwt). Seed treatment was applied using a Wintersteiger HEGE II (Wintersteiger AG, Austria, Germany).
Seed was planted in 12 locations in the U.S. Midwest (IA, IL, IN). Sixteen randomized replicate blocks were harvested per each of the Flg22 polypeptide treatments consisting of Bt.4Q7Flg22 applied at 0.25 μM and 1.0 μM slurry concentration.
Replicated trials with 12 locations were set up as above. […] The Ec. Flg22 polypeptide gave 2.8 Bu/Ac (175.8 kg/Ha) advantage at 70% win rate, and the Ec.RI Flg22 gave no benefit.

corn [18] = test: Corn plant height in non-stress and heat/water deficit stress environments (Example 8); type: in vivo; settings: foliar 1 μM
Description: Control plants were treated only with water.

soybean [19] = test: Foliar Ec.Flg22 on V2-V3 soybean, plant height in growth room (Example 6); type: in vivo; settings: 0.33 Fl. oz/Ac, 2 weeks after application

At.PSKα: Phytosulfokine alpha, sulfonated polypeptide derived from Arabidopsis thaliana (Y(sulfo)IY(sulfo)TQ; listed as Arabidopsis thaliana)
yield increases Bu/Ac Foliar Corn (corn [1]; 1 μM foliar spray with surfactant at V5-V8, vs water control): 3.0 Bu/Ac
increase in overall yield (corn [1]; foliar 1 μM, V5-V8 corn): 3 Bu/Ac
yield increases Bu/Ac Foliar Soybean (soybean [2]; 1 μM foliar spray with surfactant at V1-V4, vs water control): 0.8 Bu/Ac
yield increase (soybean [2]; foliar 1 μM, V1-V4 soybean): 0.8 Bu/Ac
Height (cm) and (STDEV) 3 weeks (corn [3]; corn, 3 weeks after emergence, measured before the foliar spray (baseline), HpaG-like 1 μM, At.PSKα 100 nM): 49.36 cm
Plant Height Normalized as a percentage of control height Stress (corn [3]; corn, 5 weeks, heat and water deficit stress, control surfactant alone): 107.8%
Plant Height Normalized as a percentage of control height Non-stress (corn [3]; corn, 5 weeks, control surfactant alone): 98.2%
Height (cm) after stress 5 weeks (corn [3]; corn, heat and water deficit stress, HpaG-like 1 μM, At.PSKα 100 nM foliar): 54.88 cm
Height (cm) after non-stress 5 weeks (corn [3]; corn, standard growth environment, HpaG-like 1 μM, At.PSKα 100 nM foliar): 58.62 cm
growth phenotype (plant height) vs control (corn [3]; heat and water deficit stress, HpaG-like 1 μM, PSKα): improved growth phenotype
increase in height vs non-treated control (soybean [4]; non-stress environment): 3.5%
increase in height vs non-treated control (soybean [4]; stress (heat and water deficit) environments): 4.3%

thionin "tagged": thionin polypeptide that comprised a phloem localization sequence (SEQ ID NO: 650) (RTCESQSHRFKGPCSRDSNCATVCLTEGFSGGDCRGFRRRCRCTRPCVFDEK)
Ct values compared to control trees [5]: higher average Ct values

TRLSSGLKINSAKDDAAGLQIA (listed as Pseudomonas syringae) [Flg22-PSA, Flg22 derived from Pseudomonas syringae pv. actinidiae]
PSA-V leaf spot symptoms in comparison to untreated control [6]: significantly reduced PSA-V leaf spot symptoms
Average Total Relative Light Units (RLUs) [7]: 124,550 RLUs

Bt4Q7Flg 22 (DRLSSGKRINSASDDAAGLAIA; listed as Bacillus thuringiensis)
Δ Height (cm) (corn [8]; 3 to 5 weeks): 5.40 cm
Δ Height Normalized as a percentage of control height (corn [8]; vs water-treated control): +3.7%

GKLSSGLRINGASDDAAGLAIS (listed as Paenibacillus sp.) [Pa.Flg22]
Avg. Activity (%) Corn (5828 YX) 5 nM polypeptide [9]: 135.3% and 103.61%
Avg. Activity (%) Soybean (297 R4) 100 nM polypeptide [10]: 112.5% and 132.95%
Average Change in Bu/Ac compared to Untreated Control (soybean [11]): +0.28 Bu/Ac
yield increase vs base seed treatment (corn [12]): 3.57 Bu/Ac

AIAQGAADDKASNIRLGSSLRE (not fully specified (some residues); also: retro-inverso D-amino acids, exact chain order not given here; listed as Escherichia coli) [Ec.RI Flg22, retro-inverso Flg22 from Escherichia coli]
yield increase (soybean [13]; 100 nM in the tank): 0.6 Bu/Ac
win rate (soybean [13]; 10-11 sites): 80%
win rate (corn [14]): 50%
average yield increase (corn [14]; foliar spray 0.33 Fl. oz/Ac, V5-V8 corn): 1.9 Bu/Ac
win rate (soybean [15]): 73%
yield advantage (soybean [15]): 1.8 Bu/Ac
average yield increase over non-treated plants (corn [16]): 1.9 Bu/Ac
yield advantage (corn [17]): no benefit
plant height as percentage of control (corn [18]; heat/water stressed conditions): 103%
plant height as percentage of control (corn [18]; non-stressed conditions): 103%
increase in plant height normalized to control (soybean [19]): 16%
